According to patent EP0118205A1, “(5-(2-Aminomethyl-imidazol-1-yl)-1,3-dialkyl-1H-pyrazol-4-yl)(aryl)methanones and processes for their production” (WARNER-LAMBERT COMPANY, priority 1983, dated 1984):
Structures can show the parent of a compound that is named as a salt.

Tested on: amnesia produced by an electroconvulsive shock
Assay: Reversal of amnesia produced by electroconvulsive shock (shelf-box foot shock memory test)
Format: in vivo, male mice (Carworth, CF-1 strain)
Conditions: mice, oral
Experimental: The effectiveness of the aforementioned compounds is determined by the test given below which is designed to show the compound's ability to reverse amnesia produced by an electroconvulsive shock.
One hundred male mice (Carworth, CF-1 strain, 19-21 g at time of shipment) are divided into five groups of 20 mice each. Each mouse is placed, one at a time, on a small shelf attached to the outside wall of a test box. In this position the mouse is suspended in space. Therefore, the mouse is motivated to step from the shelf through a conveniently placed small hole into the interior of the box. As soon as the mouse has all four feet within the semidarkened interior of the box, the grid floor of the box is electrified (1.5 milliamps, 3 second duration) to produce a strong pain-fear reaction from the animal. About five seconds thereafter, the mouse is removed from the test box and placed in a group holding cage.
Two hours after the above training, the mice are given a single electroconvulsive shock produced by 20 milliamps delivered for 1.0 seconds through the ears. Immediately thereafter, the mice are returned to the holding cage.
Two hours after the convulsive treatment, the mice are administered orally through a […] with the chemical being assessed. Usually three doses of the chemical will be tested at a time.
One hour after the drug treatment, the mice are tested for memory of the painful foot shock received within the shelf-box apparatus. This testing is accomplished by once again placing each mouse on the small shelf attached to the test box. Any mouse that stays on the shelf for 60 seconds without entering the box is counted as remembering the painful foot shock received within the box five hours earlier. Any mouse entering the box within the 60-second period is counted as having amnesia for the painful event.
The five groups of mice are treated as follows:
The percentage of amnesia reversal is determined as follows for each drug group: [formula]
The following table reports the percent of amnesia reversal of orally administered [(5-(2-aminomethyl)-5-methyl-lH- imidazol-1-yl)-1,3-dimethyl-lH-pyrazol-4-yi](2-chlorophenyl)methanone dihydrochloride.

Row | SMILES | Percent Amnesia Reversal (dose 1 mg/kg) [%] | Percent Amnesia Reversal (dose 10 mg/kg) [%] | Percent Amnesia Reversal (dose 100 mg/kg) [%] | Percent Amnesia Reversal (Rating) (dose 1 mg/kg) | Percent Amnesia Reversal (Rating) (dose 10 mg/kg) | Percent Amnesia Reversal (Rating) (dose 100 mg/kg) | % Amnesia Reversal (dose 0.63 mg/kg) [%] | Rating (dose 0.63 mg/kg) | % Amnesia Reversal (dose 1.25 mg/kg) [%] | Rating (dose 1.25 mg/kg) | % Amnesia Reversal (dose 2.50 mg/kg) [%] | Rating (dose 2.50 mg/kg) | % Amnesia Reversal (dose 5.00 mg/kg) [%] | Rating (dose 5.00 mg/kg) | % Amnesia Reversal (dose 20.00 mg/kg) [%] | Rating (dose 20.00 mg/kg) | % Amnesia Reversal (dose 80.00 mg/kg) [%] | Rating (dose 80.00 mg/kg)
1 | Cc1nn(C)c(-n2ccnc2CN2CCCC2)c1C(=O)c1ccccc1Cl [Example 3, (2-chlorophenyl)-[1,3-dimethyl-5-[2-(1-pyrrolidinylmethyl)-1H-imidazol--yl]-1H-pyrazol-4-yl]methanone dihydrochloride] | 79 | 27 | 25 | A (40 percent or more (active = A)) | C (25 to 39 percent (borderline = C)) | C (25 to 39 percent (borderline = C)) |  |  |  |  |  |  |  |  |  |  |  | 
2 | Cc1nn(C)c(-n2c(CN3CCN(C)CC3)nc(C)c2C)c1C(=O)c1ccccc1Cl [Example 4, (2-Chlorophenyl)[1,3-dimethyl-5-[4,5-dimethyl-2-[(4-mthyl-piperazin-1-yl)methyl]-1H-imidazol-1-yl]-1H-pyrazol-4-yl]methanone] | 36 | 91 | 54 | C (25 to 39 percent (borderline = C)) | A (40 percent or more (active = A)) | A (40 percent or more (active = A)) |  |  |  |  |  |  |  |  |  |  |  | 
3 | Cc1nn(C)c(-n2c(C)cnc2CN)c1C(=O)c1ccccc1Cl [Example 1, [5-((2-aminomethyl)-5-methyl-lH-imidazol-1-yl)-1,3-dimethyl-1H-pyrazol-4-yl] (2-chlorophenyl) methanone dihydrochloride] |  |  |  |  |  |  | 20 | N (0 to 29 percent (inactive = N)) | 40 | A (40 percent or more (active = A)) | 40 | A (40 percent or more (active = A)) | 62 | A (40 percent or more (active = A)) | 87 | A (40 percent or more (active = A)) | 44 | A (40 percent or more (active = A))
4 | Cc1nn(C)c(-n2c(C)cnc2CN(C)C)c1C(=O)c1ccccc1Cl [Example 2] | 64 | 64 | 85 | A (40 percent or more (active = A)) | A (40 percent or more (active = A)) | A (40 percent or more (active = A)) |  |  |  |  |  |  |  |  |  |  |  | 
